In US20040209799A1, “JAK/STAT pathway inhibitors and the uses thereof” (priority 2000, published 2004):

Tests used:
Assay type in all cases: cell-based
[1] = tested on: rhIL-1β-induced mRNAs in human articular chondrocytes; test: northern blot, rhIL-1β-induced mRNAs, comparison of DBH forms (some mRNAs, not named); settings: 5 μM, for some mRNAs
Method: (§1) Frozen human articular chondrocyte cell strain HC30-0198 (described in Example 1) was thawed, and cultured in monolayer in T150 tissue culture flasks (Corning Costar, Cambridge, Mass.) as described above to 1-5 days post-confluence. Test cultures were rinsed in PBS, and preincubated for 2 hours with 10 ml of serum-free DMEM containing 5 μM DBH (synthetic), in its free base or trifluoroacetic acid salt form. An additional 10 ml of serum-free DMEM containing 5 μM DBH, 4 ng/ml recombinant human interleukin-1β (rhIL-1β; final concentration of 2 ng/ml) (R&D Systems, Minneapolis, Minn.), and 2% antibiotic solution (final concentration of 1%), were then added for 24 hours.
(§2) Two control cultures were run in parallel: one without DBH (rhIL-1β alone), and another without DBH or rhIL-1β.
(§3) Total RNA was fixed to the membrane using a Stratalinker® 1800 UV Crosslinker (Stratagene, La Jolla, Calif.). […]
(§4) The blot was successively washed two times in 2×SSC/0.05% SDS (15 min/wash at room temperature), and two times in 0.1×SSC/0.1% SDS (30 minutes/wash at 65° C.). The blot was allowed to air dry, and the radioactive signal was visualized and quantified using a Fujifilm, BAS-1500 phosphorimager (Fuji, Stamford, Conn.). […]

[2] = tested on: cyclooxygenase II (COX2) mRNA; test: northern blot, IL-1β-induced mRNA in human articular chondrocytes: COX2; settings: 5 μM, 2 ng/ml rhIL-1β, 24 hours, free base or trifluoroacetic acid salt form
Method: as §1, §2, §3, §4

[3] = tested on: stromelysin-1 (MMP3) mRNA; test: northern blot, IL-1β-induced mRNA in human articular chondrocytes: stromelysin-1; settings: 5 μM, 2 ng/ml rhIL-1β, 24 hours, free base or trifluoroacetic acid salt form
Method: as §1, §2, §3, §4

[4] = tested on: tumor necrosis factor-α (TNF-α) mRNA; test: northern blot, IL-1β-induced mRNA in human articular chondrocytes: TNF-α; settings: 5 μM, 2 ng/ml rhIL-1β, 24 hours, free base or trifluoroacetic acid salt form
Method: as §1, §2, §3, §4

Row | inhibition of IL-1β-induced upregulation of cyclooxygenase II (COX2) mRNA [2] | SMILES | inhibition of rhIL-1β-induced mRNAs, compared with the trifluoroacetic acid salt form [1] | inhibition of IL-1β-induced upregulation of stromelysin (MMP3) mRNA [3] | inhibition of IL-1β-induced upregulation of tumor necrosis factor-α (TNF-α) mRNA [4]
1 | – | NC1=NC(=O)C(=C2CCNC(=O)c3[nH]ccc32)N1 [DBH-2FB] | to a greater extent than the trifluoroacetic acid salt form of DBH | – | –
2 | inhibit to various degrees | NC1=NC(=O)C(=C2CCNC(=O)c3[nH]ccc32)N1 [DBH, 4-(2-amino-4-oxo-2-imidazolin-5-ylidene)-4,5,6,7-tetrahydropyrrolo(2,3-c) azepine-8-one] | – | inhibit to various degrees | inhibit to various degrees
